Laboratory results from patent EP4445957A1, “ANTIBACTERIAL COVALENT PEPTIDE INHIBITORS” (priority 2023, dated 2024).
Where two headings read alike, the source gives them in different places. Square brackets hold non-standard residues; d marks the D form. Peptide text beside a SMILES is read from it. * marks the point of attachment. Cha = N[C@@H](CC1CCCCC1)C(=O)O; Crotonyl(E) = C/C=C/C(=O)*; Dap = NC[C@H](N)C(=O)O; Acryloyl = C=CC(=O)*; BrAc = O=C(CBr)*; ClAc = O=C(CCl)*; X1 = CC#CC(=O)*

What was measured:
EcSC = biological target: T1, EcSC (Escherichia coli, UniProt P0A988); assay: Covalent adduct formation monitored by mass spectrometry, kinetic constants kinact; format: biochemical, E. coli; conditions: for formation of covalent adducts: reaction monitored by mass spectrometry
T1 construct: compatible with the molecular weight of ^EcSC monomer (40.6 kDa); endogenous in cells; host or cells: E. coli whole cell lysate
Procedure: We consider the following two-steps reaction model to describe the binding of the peptide to SC and the covalent bond formation to the His 175 residue: • First step: the peptides bind reversibly to the SC binding site • Second: the formation of the covalent bond. [drawing 31]
Overall, no major effect of the incorporation of the warheads on the binding affinity was observed on the whole series of the TCls. […] Then, kinetic constants (kinact) of compounds 1 and 2 were determined at 22°C and 37°C (Table 7, entries 4 and 7).

EcwtSC = EcwtSC (Escherichia coli, UniProt P0A988); assay: Isothermal Titration Calorimetry (ITC/kinITC), wild-type sliding clamp; format: binding, E. coli
Procedure: ITC experiments were performed using an iTC200 or a PEAQ-ITC instrument (Microcal Malvern Panalytical). […] Data were corrected for the heat of injection by subtracting the signal of the titration of peptides into protein-free buffer solution either R1 buffer ([4-(2-hydroxyethyl)piperazine-1-ethanesulfonic acid (HEPES) 10 mM pH 7.4, NaCl 0.15 M, EDTA 3 mM] or AcNH4 pH7.4, 150 mM). Each titration was performed at least twice: the exact number of the experiments performed with each peptide is indicated in Tables 1-6. Reported data are mean values (± SD) of all experiments. Analyses of the experimental data were performed, following a classical treatment with AFFINImeter software (https://www.affinimeter.com; S4S, Santiago de Compostela, Spain). In addition, kinetic information was obtained in some cases with kinITC as implemented in software AFFINImeter (D. Burnouf et al., J. Am. Chem. Soc. 2012, 134, 559-565; and P. Dumas et al., in Methods Enzymol., Elsevier, 2016, pp. 157-180).

EcH175GSC = EcH175GSC (Escherichia coli, UniProt P0A988, H175G); assay: Isothermal Titration Calorimetry (ITC/kinITC), H175G mutant sliding clamp; format: binding, E. coli; conditions: for ΔΔH (ΔH reduction): H175G SC mutant compared to EcwtSC, 25 °C; for ΔΔH (ΔH reduction) / -TΔS / ΔG / ΔH: R1 buffer; for -TΔS / ΔG / ΔH: 25 °C (298.15K)
Procedure: ITC experiments were performed using an iTC200 or a PEAQ-ITC instrument (Microcal Malvern Panalytical). Peptides (300 or 600 µM) were titrated at 25 °C by sequential injections (usually 2 µL each) into an SC solution (30 or 60 µM). Data were corrected for the heat of injection by subtracting the signal of the titration of peptides into protein-free buffer solution either R1 buffer ([4-(2-hydroxyethyl)piperazine-1-ethanesulfonic acid (HEPES) 10 mM pH 7.4, NaCl 0.15 M, EDTA 3 mM] or AcNH4 pH7.4, 150 mM). Each titration was performed at least twice: the exact number of the experiments performed with each peptide is indicated in Tables 1-6. Reported data are mean values (± SD) of all experiments. Analyses of the experimental data were performed, following a classical treatment with AFFINImeter software (https://www.affinimeter.com; S4S, Santiago de Compostela, Spain). In addition, kinetic information was obtained in some cases with kinITC as implemented in software AFFINImeter (D. Burnouf et al., J. Am. Chem. Soc. 2012, 134, 559-565; and P. Dumas et al., in Methods Enzymol., Elsevier, 2016, pp. 157-180).

[1] = buffer AcNH4 pH 7.4, 150 mM, 295.15 K (22 °C)
[2] = buffer AcNH4 pH 7.4, 150 mM, 295.15 K (22 °C), read-out: KD
[3] = buffer AcNH4 pH 7.4, 150 mM, 310.15 K (37 °C)
[4] = buffer AcNH4 pH 7.4, 150 mM, 310.15 K (37 °C), read-out: KD
[5] = buffer R1 (X 1), 295.15 K (22 °C)
[6] = buffer R1 (X 1), 310.15 K (37 °C)

Chain of EcH175GSC (P0A988 whole entry H175G): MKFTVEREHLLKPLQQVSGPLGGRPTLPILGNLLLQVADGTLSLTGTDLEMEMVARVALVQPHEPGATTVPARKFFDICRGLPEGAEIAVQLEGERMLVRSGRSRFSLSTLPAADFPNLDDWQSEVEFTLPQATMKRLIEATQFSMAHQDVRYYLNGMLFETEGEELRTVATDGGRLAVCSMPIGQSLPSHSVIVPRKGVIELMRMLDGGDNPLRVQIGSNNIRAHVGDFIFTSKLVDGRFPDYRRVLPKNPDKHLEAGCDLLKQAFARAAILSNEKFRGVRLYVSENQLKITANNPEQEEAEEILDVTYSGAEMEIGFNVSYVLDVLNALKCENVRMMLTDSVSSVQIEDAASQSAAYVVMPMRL
Chain of EcwtSC (P0A988 whole entry): as the sequence (P0A988 whole entry H175G) above, with G175H counted along it
T1 sequence (P0A988 whole entry): as the sequence (P0A988 whole entry H175G) above, with G175H counted along it

| SMILES | -TΔS (EcwtSC; R1 buffer, 25 °C (298.15K)) | ΔG (EcwtSC; R1 buffer, 25 °C (298.15K)) | ΔH (EcwtSC; R1 buffer, 25 °C (298.15K)) | -TΔS (EcwtSC; [1]) | ΔG (EcwtSC; [1]) | ΔH (EcwtSC; [1]) | Kd (EcwtSC; [2]) [nM] | -TΔS (EcwtSC; [3]) | ΔG (EcwtSC; [3]) | ΔH (EcwtSC; [3]) | Kd (EcwtSC; [4]) [nM] | -TΔS (EcwtSC; [5]) | ΔG (EcwtSC; [5]) | ΔH (EcwtSC; [5]) | -TΔS (EcwtSC; [6]) | ΔG (EcwtSC; [6]) | ΔH (EcwtSC; [6]) | ΔΔH (ΔH reduction) (EcH175GSC) [kcal/mol] | -TΔS (EcH175GSC) | ΔG (EcH175GSC) | other results |
| --- | --- | --- | --- | --- | --- | --- | --- | --- | --- | --- | --- | --- | --- | --- | --- | --- | --- | --- | --- | --- | --- |
| C=CC(=O)NC[C@H](NC(=O)[C@H](CC1CCCCC1)NC(=O)[C@H](CCC(N)=O)NC(C)=O)C(=O)N[C@@H](CC(C)C)C(=O)N[C@@H](Cc1ccccc1)C(=O)O [Peptide 1, Ac-Gln-Cha-Dap(acrylamide)-Leu-Phe-OH] (Ac-Q[Cha][Dap](Acryloyl)LF-OH) | 3.7 (± 0.02) kcal/mol | -9.2 (± 0.07) kcal/mol | -12.8 (± 0.08) kcal/mol | 2.3 (± 0.7) kcal/mol | -9.3 (± 0.3) kcal/mol | -11.5 (± 0.5) kcal/mol | 153 | 6.9 (± 1.1) kcal/mol | -8.9 (± 0.1) kcal/mol | -15.9 (± 1.2) kcal/mol | 482 | 2.1 (± 0.2) kcal/mol | -9.4 (± 0.2) kcal/mol | -11.4 (± 0.4) kcal/mol | 4.9 (± 1.1) kcal/mol | -9.04 (± 0.26) kcal/mol | -13.9 (± 0.8) kcal/mol | 2.1 | 3.3 (±0.7) kcal/mol | -8.3 (±0.1) kcal/mol | formation of covalent adducts (EcSC): form covalent adducts; ΔH (EcH175GSC): -11.6 (±0.6) kcal/mol |
| CC(=O)N[C@@H](CCC(N)=O)C(=O)N[C@@H](CC1CCCCC1)C(=O)N[C@@H](CNC(=O)CCl)C(=O)N[C@@H](CC(C)C)C(=O)N[C@@H](Cc1ccccc1)C(=O)O [Peptide 2, Ac-Gln-Cha-Dap(chloroacetamide)-Leu-Phe-OH] (Ac-Q[Cha][Dap](ClAc)LF-OH) | 2.5 (± 0.4) kcal/mol | -9.2 (± 0.1) kcal/mol | -11.7 (± 0.4) kcal/mol | 1.7 (± 1.5) kcal/mol | -9.2 (± 0.1) kcal/mol | -10.9 (± 1.5) kcal/mol |  | 8.1 (± 3.0) kcal/mol | -8.9 (± 0.4) kcal/mol | -16.9 (± 2.7) kcal/mol | 580 | -0.3 (± 0.1) kcal/mol | -9.31 (± 0.03) kcal/mol | -8.9 (± 0.1) kcal/mol | 2.3 (± 0.9) kcal/mol | -9.03 (± 0.23) kcal/mol | -11.3 (± 0.8) kcal/mol | 3.2 | 1.2 (±0.1) kcal/mol | -8.3 (±0.08) kcal/mol | kinact (M^-1. s^-1) at 37 °C (AcONH4 buffer) (EcSC; 37 °C, AcONH4 buffer, second-order rate constant): 1.04 ± 0.01 M⁻¹ s⁻¹; formation of covalent adducts (EcSC): form covalent adducts; Kd (EcwtSC; read-out: KD (nM) at 22 °C (AcONH4 buffer), Table 7, 22 °C, AcONH4 buffer): 146 ± 20 nM; ΔH (EcH175GSC): -9.6 (±0.1) kcal/mol |
| C/C=C/C(=O)NC[C@H](NC(=O)[C@H](CC1CCCCC1)NC(=O)[C@H](CCC(N)=O)NC(C)=O)C(=O)N[C@@H](CC(C)C)C(=O)N[C@@H](Cc1ccccc1)C(=O)O [Peptide 3, Ac-Gln-Cha-Dap(but-2-enamide)-Leu-Phe-OH] (Ac-Q[Cha][Dap](Crotonyl(E))LF-OH) | 1.1 (± 0.1) kcal/mol | -9.25 (± 0.01) kcal/mol | -10.4 (± 0.1) kcal/mol | 0.79 (± 0.52) kcal/mol | -9.02 (± 0.2) kcal/mol | -9.81 (± 0.4) kcal/mol | 212 | 6.31 (±0.02) kcal/mol | -8.97 (± 0.06) kcal/mol | -15.3 (± 0.1) kcal/mol |  | 1.8 (± 0.4) kcal/mol | -9.7 (± 0.2) kcal/mol | -11.7 (± 0.6) kcal/mol | 5.8 (± 1) kcal/mol | -9.1 (± 0.2) kcal/mol | -14.8 (± 0.8) kcal/mol |  |  |  | Kd (EcwtSC; read-out: KD (nM) at 37 °C (AcONH4 buffer), Table 7, 37 °C, AcONH4 buffer): 475 ± 47 nM |
| CC(=O)N[C@@H](CCC(N)=O)C(=O)N[C@@H](CC1CCCCC1)C(=O)N[C@@H](CNC(=O)CBr)C(=O)N[C@@H](CC(C)C)C(=O)N[C@@H](Cc1ccccc1)C(=O)O [Peptide 4, Ac-Gln-Cha-Dap(bromoacetamide)-Leu-Phe-OH] (Ac-Q[Cha][Dap](BrAc)LF-OH) |  |  |  |  |  |  | 111 |  |  |  | 281 |  |  |  |  |  |  |  |  |  | Kd (EcwtSC; KD (nM) at 22 °C (AcONH4 buffer), Table 7, 22 °C, AcONH4 buffer): 111 ± 17 nM; Kd (EcwtSC; KD (nM) at 25°C (Hepes buffer), Table 7, 25°C, Hepes buffer): 139 ± 54 nM; Kd (EcwtSC; KD (nM) at 37 °C (AcONH4 buffer), Table 7, 37 °C, AcONH4 buffer): 281 ± 62 nM; Kd (EcwtSC; R1 buffer, 25 °C (298.15K), read-out: KD): 141 nM; Kd (EcwtSC; buffer R1 (X 1), 295.15 K (22 °C), read-out: KD): 96.4 nM; Kd (EcwtSC; buffer R1 (X 1), 310.15 K (37 °C), read-out: KD): 273 nM; Kd (EcH175GSC): 730 nM |
| CC#CC(=O)NC[C@H](NC(=O)[C@H](CC1CCCCC1)NC(=O)[C@H](CCC(N)=O)NC(C)=O)C(=O)N[C@@H](CC(C)C)C(=O)N[C@@H](Cc1ccccc1)C(=O)O [Peptide 5, Ac-Gln-Cha-Dap(but-2-ynamide)-Leu-Phe-OH] (Ac-Q[Cha][Dap](X1)LF-OH) | 2.1 (± 0.1) kcal/mol | -9.8 (± 0.1) kcal/mol | -11.8 (± 0.06) kcal/mol |  |  |  |  |  |  |  |  | 2.7 (± 1.2) kcal/mol | -10.5 (± 0.2) kcal/mol | -13.1 (± 1.2) kcal/mol | 6.9 (± 0.4) kcal/mol | -10.12 (± 0.03) kcal/mol | -17.0 (± 0.4) kcal/mol | 2.0 | 0.04 (±0.3) kcal/mol | -9.7 (±0.1) kcal/mol | ΔH (EcH175GSC): -9.7 (±0.2) kcal/mol |
